SMILES	melting point [°C]
O=S(=O)(NCCN1CC(c2ccccc2)C(c2ccc(Cl)cc2)=N1)c1cccc(C(F)(F)F)c1 (stereo not drawn) [IX, N-[2-(3-(4-Chlorophenyl)-4,5-dihydro-4-phenyl-1H-pyrazol-1-yl)ethyl]-3-(trifluoromethyl)benzenesulfonamide]	94 to 96
CNC(=NC(=O)c1cccc(C(F)(F)F)c1)N1CC(c2ccccc2)C(c2ccc(Cl)cc2)=N1 (stereo not drawn) [V, N-Methyl-N′-(3-(trifluoromethyl)benzoyl)-3-(4-chlorophenyl)-4,5-dihydro-4-phenyl-1H-pyrazole-1-carboxamidine]	180 to 182
O=S(=O)(CCN1CC(c2ccccc2)C(c2ccc(Cl)cc2)=N1)c1cccc(C(F)(F)F)c1 (stereo not drawn) [VIII, 3-(4-Chlorophenyl)-4,5-dihydro-4-phenyl-1-[2-((3-(trifluoromethyl)phenyl)-sulfonyl)ethyl]-1H-pyrazole]	118 to 119

Reference: patent publication US6476060B2, “4,5-dihydro-1H-pyrazole derivatives having CB1-antagonistic activity” (Solvay Pharmaceuticals, B.V., priority 2000, dated 2002)
